In US20240034724A1, “THERAPEUTIC COMPOUNDS USEFUL FOR THE PROPHYLACTIC OR THERAPEUTIC TREATMENT OF AN HIV VIRUS INFECTION” (Gilead Sciences, Inc., priority 2022, published 2024) one finds EC50 and CC50 data, which are given here for 6 compounds.

For one data set, the system named is HIV-1 (IIIb strain). In words: Test A: Antiviral Assay in the Human MT-4 T-Lymphoblastoid Cell Line. It counts as cell-based. The settings on record: Human immunodeficiency virus 1, MT4, 120 h; MT-4 cells infected with HIV-1 IIIb, 5 days, CellTiter-Glo, protection from virus-induced cell death. The protocol:
Test A: Antiviral Assay in the Human MT-4 T-Lymphoblastoid Cell Line
(§1) For the MT-4 antiviral assay, 50 μL of 3-fold serially diluted compound in complete RPMI medium was added to each well of a 384-well plate (10 concentrations) in quadruplicate. MT-4 cells were infected with HIV-1 (IIIb strain) at a multiplicity of infection (m.o.i.) of ˜0.005 for 1 hour at 37° C. and 20 μL of virus/cell mixture (˜2,000 cells) was added to each well of the assay plate containing 50 μL of diluted compound. A positive control (1 μM azidothymidine, AZT) and a negative control (dimethyl sulfoxide, DMSO) were included in every assay plate to define 100% and 0% protection, respectively. The final DMSO concentration in the assay was 0.5%. The plates were then incubated at 37° C. for 5 days. At the end of the incubation, 30 μL of CellTiter-Glo reagent (Promega Madison, WI) was added to each well of the assay plates. Cell lysis was carried out by incubating the assay plates at room temperature for 10 minutes followed by the quantification of chemiluminescence signal using an EnVision plate reader (Perkin Elmer, Shelton, CT). Antiviral dose response data were normalized to positive and negative controls in each plate and analyzed by curve fitting after conversion of the data to % cell death to determine the half-maximal effective concentration (EC50) value, defined as the compound concentration that caused a 50% protection from cytopathic effect (CPE)-dependent virus-induced cell death.

A short description of data set [1]: Test B: Cytotoxicity Assay in MT-4 Cells. The format is cell-based. The settings on record: human, uninfected MT-4 cells, CellTiter-Glo. The protocol: as §1, with “death. Test B: Cytotoxicity Assay in MT-4 Cells Compound cytotoxicity and the corresponding half-maximal cytotoxicity concentration (CC50) values was determined using the same protocol as described in the antiviral assay (Test A) except that uninfected cells were used and the data were normalized to the 100% viability control (DMSO) wells on each plate.” for “death.”
(Cellular ATP, detected with luciferase, serves as a proxy for viable cell number.)

A value given as a limit tells only on which side of the number the result lay.

What is called EC50 is the concentration that produces a half-maximal response. A low value points to an effect from little substance. One may read the CC50 as the concentration giving 50% cytotoxicity.

In the data set on HIV-1 (IIIb strain), `CC(C)(O)C#Cc1ccc(-c2ccc(Cl)c3c(NS(C)(=O)=O)nn(CC(F)(F)F)c23)c([C@H](Cc2cc(F)cc(F)c2)NC(=O)Cn2nc(C(F)(F)F)c3c2C(F)(F)[C@@H]2C[C@H]32)n1` [Example 1, N—((S)-1-(3-(4-chloro-3-(methylsulfonamido)-1-(2,2,2-trifluoroethyl)-1H-indazol-7-yl)-6-(3-hydroxy-3-methylbut-1-yn-1-yl)pyridin-2-yl)-2-(3,5-difluorophenyl)ethyl)-2-((3bS,4aR)-5,5-difluoro-3-(trifluoromethyl)-3b,4,4a,5-tetrahydro-1H-cyclopropa[3,4]cyclopenta[1,2-c]pyrazol-1-yl)acetamide] had a concentration for a half-maximal effect (EC50) of 0.34 nM. The same compound gave a CC50 at 5 days in data set [1] of 3610 nM.
Consider `C=C(C)C#Cc1ccc(-c2ccc(Cl)c3c(NS(C)(=O)=O)nn(CC(F)(F)F)c23)c([C@H](Cc2cc(F)cc(F)c2)NC(=O)Cn2nc(C(F)(F)F)c3c2C(F)(F)[C@@H]2C[C@H]32)n1` [Example 2, N—((S)-1-(3-(4-chloro-3-(methylsulfonamido)-1-(2,2,2-trifluoroethyl)-1H-indazol-7-yl)-6-(3-methylbut-3-en-1-yn-1-yl)pyridin-2-yl)-2-(3,5-difluorophenyl)ethyl)-2-((3bS,4aR)-5,5-difluoro-3-(trifluoromethyl)-3b,4,4a,5-tetrahydro-1H-cyclopropa[3,4]cyclopenta[1,2-c]pyrazol-1-yl)acetamide], for which the EC50 in the data set with HIV-1 (IIIb strain) turned out to be 18 nM. The CC50 at 5 days in data set [1] was found to be 8740 nM.
As for `CC(C)C#Cc1ccc(-c2ccc(Cl)c3c(NS(C)(=O)=O)nn(CC(F)(F)F)c23)c([C@H](Cc2cc(F)cc(F)c2)NC(=O)Cn2nc(C(F)(F)F)c3c2C(F)(F)[C@@H]2C[C@H]32)n1` [Example 3, N—((S)-1-(3-(4-chloro-3-(methylsulfonamido)-1-(2,2,2-trifluoroethyl)-1H-indazol-7-yl)-6-(3-methylbut-1-yn-1-yl)pyridin-2-yl)-2-(3,5-difluorophenyl)ethyl)-2-((3bS,4aR)-5,5-difluoro-3-(trifluoromethyl)-3b,4,4a,5-tetrahydro-1H-cyclopropa[3,4]cyclopenta[1,2-c]pyrazol-1-yl)acetamide], the EC50 in the data set on HIV-1 (IIIb strain) stood at 21 nM. In data set [1], this compound registered a CC50 at 5 days of 7500 nM.
Taken in the same sequence, the figures for `CN(c1nn(CC(F)(F)F)c2c(-c3ccc(C#CC(C)(C)S(C)(=O)=O)nc3[C@H](Cc3cc(F)cc(F)c3)NC(=O)Cn3nc(C(F)(F)F)c4c3C(F)(F)[C@@H]3C[C@H]43)ccc(Cl)c12)S(C)(=O)=O` [Example 4, N—((S)-1-(3-(4-chloro-3-(N-methylmethylsulfonamido)-1-(2,2,2-trifluoroethyl)-1H-indazol-7-yl)-6-(3-methyl-3-(methylsulfonyl)but-1-yn-1-yl)pyridin-2-yl)-2-(3,5-difluorophenyl)ethyl)-2-((3bS,4aR)-5,5-difluoro-3-(trifluoromethyl)-3b,4,4a,5-tetrahydro-1H-cyclopropa[3,4]cyclopenta[1,2-c]pyrazol-1-yl)acetamide] were 8.3 nM and > 50000 nM.
The like results for `CC(C)(C#Cc1ccc(-c2cccc3c(NS(C)(=O)=O)nn(CC(F)(F)F)c23)c([C@H](Cc2cc(F)cc(F)c2)NC(=O)Cn2nc(C(F)(F)F)c3c2C(F)(F)[C@@H]2C[C@H]32)n1)S(C)(=O)=O` [Example 5, 2-((3bS,4aR)-5,5-difluoro-3-(trifluoromethyl)-3b,4,4a,5-tetrahydro-1H-cyclopropa[3,4]cyclopenta[1,2-c]pyrazol-1-yl)-N—((S)-2-(3,5-difluorophenyl)-1-(6-(3-methyl-3-(methylsulfonyl)but-1-yn-1-yl)-3-(3-(methylsulfonamido)-1-(2,2,2-trifluoroethyl)-1H-indazol-7-yl)pyridin-2-yl)ethyl)acetamide] were, in that order, 0.07 nM and 9480 nM.
`CCN(c1nn(CC(F)(F)F)c2c(-c3ccc(C#CC(C)(C)S(C)(=O)=O)nc3[C@H](Cc3cc(F)cc(F)c3)NC(=O)Cn3nc(C(F)(F)F)c4c3C(F)(F)[C@@H]3C[C@H]43)ccc(Cl)c12)S(C)(=O)=O` [Example 6, N—((S)-1-(3-(4-chloro-3-(N-ethylmethylsulfonamido)-1-(2,2,2-trifluoroethyl)-1H-indazol-7-yl)-6-(3-methyl-3-(methylsulfonyl)but-1-yn-1-yl)pyridin-2-yl)-2-(3,5-difluorophenyl)ethyl)-2-((3bS,4aR)-5,5-difluoro-3-(trifluoromethyl)-3b,4,4a,5-tetrahydro-1H-cyclopropa[3,4]cyclopenta[1,2-c]pyrazol-1-yl)acetamide] gave an EC50 with HIV-1 (IIIb strain) of 3.3 nM. Moreover, in data set [1], the CC50 at 5 days is > 50000 nM.
